The test system of data set [1] is lung carcinoma cell line: A549. Description: Living A549 cells by AlamarBlue test. The data set is classed as cell-based, homo sapiens. As to conditions: 100 μg/ml, after 72 h, FIG. 4. Here is the method:
Cell line: lung carcinoma cell line: A549 (ATCC No. CCL-185™), organism: homo sapiens, literature: Giard D J, et al. J. Natl. Cancer Inst. 51: 1417-1423, 1973.
After adherence of the cells (incubation 24 h, cell amount 5×10^3 cells per batch), the cells were treated for 72 h with MCS and/or peptides (CZT, DZT) and afterwards the percentage of living cells was measured by AlamarBlue test.
AlamarBlue™ cell growth test was carried out according to the specifications of the manufacturer (Serotec, Oxford, England, www.serotc.com).
A general note: Resazurin is reduced to fluorescent resorufin, in cell work by metabolically active cells.

Data set [2] relates to Colon cancer cell line: Colo 205. As to the kind of experiment: Living Colo 205 cells by MTT test. The data set is classed as cell-based, homo sapiens. As to conditions: 24 h. Here is the method:
After adherence of the cells (incubation 24 h, cell amount 1×10^4 cells per batch), the cells were treated for 24 h with MCS and/or peptides (Hellethionin C (CZT), Hellethionin D (DZT)) and afterwards the percentage of living cells was measured by MTT test.
The MTT cell growth test was carried out according to Alley et. al. (M. C. Alley et al., Proc. Am. Assoc. Cancer Res., 27:389, 1986; M. C. Alley et al., Cancer Res. 48:589-601, 1988). The finale concentration of 3-(4,5-dimethylthiazol-2-yl)-2,5-diphenyltetrazoliumbromide was 0.4 mg/ml.

Data set [3] relates to murine peritoneal macrophages. As to the kind of experiment: Effect on murine peritoneal macrophages (NO, TNF-α, IL-10, survival). The data set is classed as cell-based, CD1 mice. As to conditions: 24 hours; for IL-10 / TNF-α: control 0; for NO: control 1.1; for Survival rate: control 100. The protocol: Murine peritoneal macrophages extracted from CD1 mice were used. A peritoneal flushing was carried out using 5 ml of PBS. After three washing processes with RPMI 1640 the cells were put into a 96-well culturing plate with a concentration of 1×10^6 cells/ml (200 μl/well) in 10% FCS-RPMI 1640 medium and kept for 24 hours. After the incubation the cells were washed three times with RPMI 1640 and resuspended in 10% FCS-RPMI 1640 medium (100 μl/well) in the absence (non stimulated) or in the presence (stimulated) of different stimulants. After 24 hours of incubation NO, IL-10 and TNF-α were measured in the culture supernatant.

In the next data set the test system is human lymphocytes. As to conditions: Büssing A. et al. 1999; cited from earlier work.
For data set [4] the following is noted: mammals; cited from earlier work.
Data set [5] deals with primary human immune cells. As to the kind of experiment: Effect on the cytokine production of primary human immune cells (Quantikine ELISA in lymphocyte cultures). The data set is classed as cell-based. As to conditions: for TGF-β2 concentration: control 9; for IL-4 concentration: control 34; for IL-3 concentration: control 41; for IL-2R concentration: control 44; for IL-10 concentration: control 69; for IL-6R concentration: control 171. Here is the method: The effect of the peptide HT-A on the cytokine production of primary human immune cells was determined through the measurement of the concentration of cytokines in lymphocyte cultures obtained from human blood. Dosages of 4-200 μg/ml of the hellethionins were used, which were obtained by adding the calculated amounts in the form of a stock solution. The concentration of individual cytokines in the treated and control samples is determined by means of the commercially available “Quantikine” ELISA plates from R&D Biosystems, Minneapolis, USA. The results were compared with control samples, i.e. with the lymphocyte culture without addition of the peptide.
In the case of the lymphocyte cultures (4 million cells per ml) treated with 4 μg and 200 μg of the peptide HT-A, respectively, the following cytokine (and cytokine receptor) concentrations [pg/ml] were obtained in comparison with the control sample (without peptide): […]
On the technique in general: ELISA stands for enzyme-linked immunosorbent assay.

Bridge positions count the residues as written; N and C are the ends. Ends that are not written are not given here.

Usually LD50 stands for the dose at which mortality reaches 50%.

On to “KSCCRNTLARNCYNACRFTGGSQPTCGILCDCIHVTTTTCPSSHPS (disulfide 3-40, 4-32, 12-30, 16-26) [HT-D, hellethionin-D]”, for which the “living cells (A549)” value in data set [1] was “about 50%”. Also, the “Living Colo 205 cells” value in data set [2] (50 μg/ml) is given as 92.15%. In addition, the “Living Colo 205 cells” value in data set [2] (100 μg/ml, listed as DZT) is reported as “about 50%”. Moreover, the “Living Colo 205 cells” value in data set [2] (100 μg/ml, listed as DZT peptide) came out at 58.66%. In data set [3] (5 μg/ml), this substance showed an IL-10 of 0 pg/mL, a TNF-α of 18 pg/mL, an NO of 0.8 µM and a Survival rate of 87.6%. In data set [3] (100 μg/ml), this substance registered an IL-10 of 0 pg/mL, a TNF-α of 0 pg/mL, an NO of 1.3 µM and a Survival rate of 42.8%.
As to viscotoxins, the “toxic effect on human lymphocytes” value in the data set with human lymphocytes is given as “toxic”. Further, in data set [4], the LD50 is 0.1 to 1 mg/kg.
For the substance purothionins, in the data set with human lymphocytes, the “toxic effect on human lymphocytes” value is on record as “do not exert a toxic effect”.
With “KSCCRNTLGRNCYNACRLTGTSQATCATLCDCIHVTATTCRPPYPS (disulfide 3-40, 4-32, 12-30, 16-26) [HT-C, hellethionin-C]”, the Survival rate in data set [3] (5 μg/ml) is 80.3%; in data set [3] (100 μg/ml) it was 10.7%.
Regarding hellethionin-A [HT-A], in data set [5] (4 μg/ml peptide), the TGF-β2 concentration worked out at 105 pg/mL, the IL-4 concentration turned out to be 19 pg/mL, the IL-3 concentration worked out at 26 pg/mL and the IL-2R concentration came out at 30 pg/mL. In data set [5] (4 μg/ml peptide), this substance displayed an IL-10 concentration of 288 pg/mL and an IL-6R concentration of 100 pg/mL. Also, in data set [5] (200 μg/ml peptide), the TGF-β2 concentration is 45 pg/mL, the IL-4 concentration was 12 pg/mL, the IL-3 concentration stood at 8 pg/mL and the IL-2R concentration turned out to be 67 pg/mL. In data set [5] (200 μg/ml peptide), this substance registered an IL-10 concentration of 12 pg/mL and an IL-6R concentration of 65 pg/mL. Moreover, in data set [5] (4 and 200 μg/ml), the “expression of pro-inflammatory cytokines IL-2, IL-3, IL-4 and γ-IFN” value is “inhibiting the expression”; the “influence on production of IL-6 or TNF-α and expression of the IL-1 receptor” value was “no significant influence”. Also, in data set [5] (more intense at 4 μg/ml than at 200 μg/ml), the “effect on cytokines acting suppressively, IL-10 and TGF-β2” value is “shows a stimulation”.

Source of the values: patent US7750114B2, “Peptides having a high cysteine content” (priority 2002, dated 2010).
